This assay deals with C3AKF1 mice, hamster liver cystadenocarcinoma s.c., tumor weight T/C. Kind of assay: NCI In Vivo Anticancer Drug Screen. Data for tumor model Cystadenocarcinoma, Liver (No. 1) (Hamster) (subcutaneous) in C3AKF1 (CHKRF1) mice. Conditions: endpoint: mean tumor weight, schedule: Q01DX010 (ip), higher = larger tumour. How it is done: The antitumor activity of compounds was measured in mice bearing transplantable tumors. Survival or tumor size were measured and the results are expressed as the measurement made in the treated group (T) divided by the measurement made in the vehicle treated control group (C). The tumor model used in this assay is Cystadenocarcinoma, Liver (No. 1) (Hamster) (subcutaneous) in C3AKF1 (CHKRF1) mice

The mark [1] stands for this setting: dose: 20.0 mg/kg/injection, vehicle: carboxymethylcellulose (CMC).
Setting [2] is: dose: 25.0 mg/kg/injection, vehicle: carboxymethylcellulose (CMC).
The mark [3] stands for this setting: dose: 50.0 mg/kg/injection, vehicle: carboxymethylcellulose (CMC).
Where [4] appears, read: dose: 100.0 mg/kg/injection, vehicle: carboxymethylcellulose (CMC).
Where [5] appears, read: dose: 3.0 mg/kg/injection, vehicle: carboxymethylcellulose (CMC).
Where [6] appears, read: dose: 15.0 mg/kg/injection, vehicle: carboxymethylcellulose (CMC).
Setting [7] is: dose: 37.5 mg/kg/injection, vehicle: carboxymethylcellulose (CMC).
Setting [8] is: dose: 12.5 mg/kg/injection, vehicle: carboxymethylcellulose (CMC).
The mark [9] stands for this setting: dose: 62.5 mg/kg/injection, vehicle: carboxymethylcellulose (CMC).
Setting [10] is: dose: 125.0 mg/kg/injection, vehicle: carboxymethylcellulose (CMC).
The mark [11] stands for this setting: dose: 250.0 mg/kg/injection, vehicle: carboxymethylcellulose (CMC).
[12] abbreviates: dose: 30.0 mg/kg/injection, vehicle: carboxymethylcellulose (CMC).
The mark [13] stands for this setting: dose: 60.0 mg/kg/injection, vehicle: carboxymethylcellulose (CMC).
The mark [14] stands for this setting: dose: 12.0 mg/kg/injection, vehicle: carboxymethylcellulose (CMC).
Setting [15] is: dose: 6.0 mg/kg/injection, vehicle: carboxymethylcellulose (CMC).
Where [16] appears, read: dose: 400.0 mg/kg/injection, vehicle: carboxymethylcellulose (CMC).
Setting [17] is: dose: 50.0 mg/kg/injection, vehicle: saline.
Where [18] appears, read: dose: 100.0 mg/kg/injection, vehicle: saline.

“And” between values parts separate entries of the source, which are not always exact repeats. Equal values may be shown once. Results filed as inconclusive are left out.

This is an account of results in PubChem BioAssay AID234 (DTP/NCI, 2004).

With `CCCCCCCCCCCC[n+]1cccc2ccccc21`, the T/C was 73 % of control (dose: 0.25 mg/kg/injection, vehicle: carboxymethylcellulose (CMC)); 81 % of control (dose: 0.5 mg/kg/injection, vehicle: carboxymethylcellulose (CMC)); 91 % of control (dose: 1.0 mg/kg/injection, vehicle: carboxymethylcellulose (CMC)).

On to `CC1CC(C)OS(=O)O1` (configuration not stated), for which the T/C reads like this: (dose: 44.0 mg/kg/injection, vehicle: saline) 65 % of control; (dose: 66.0 mg/kg/injection, vehicle: saline) 81 % of control.

For `CN(C)c1ccc(/C=C\c2ccnc3ccccc23)cc1`, the T/C is, setting by setting: (dose: 1.25 mg/kg/injection, vehicle: carboxymethylcellulose (CMC)) 98 % of control; (dose: 2.5 mg/kg/injection, vehicle: carboxymethylcellulose (CMC)) 95 % of control; (dose: 5.0 mg/kg/injection, vehicle: carboxymethylcellulose (CMC)) 96 % of control; (dose: 10.0 mg/kg/injection, vehicle: carboxymethylcellulose (CMC)) 88 % of control and 89 % of control; under setting [1], 67 % of control.

Consider `CC(=O)NCCSC(=O)C(=O)SCCNC(C)=O`, for which the T/C reads like this: under setting [2], 72 % of control; under setting [3], 111 % of control; under setting [4], 65 % of control.

Turning to `CCn1cnc2c(=S)nc(N)[nH]c21`, the T/C was 115 % of control under setting [5]; 107 % of control (dose: 7.0 mg/kg/injection, vehicle: carboxymethylcellulose (CMC)); 59 % of control and 70 % of control under setting [6].

Turning to `O=C(C[N+]12CN3CN(CN(C3)C1)C2)c1ccc(Cl)cc1`, the T/C is, setting by setting: under setting [7], 99 % of control; (dose: 75.0 mg/kg/injection, vehicle: carboxymethylcellulose (CMC)) 109 % of control; (dose: 150.0 mg/kg/injection, vehicle: carboxymethylcellulose (CMC)) 90 % of control; (dose: 300.0 mg/kg/injection, vehicle: carboxymethylcellulose (CMC)) 69 % of control.

In the case of `O=C(O)CC(O)(CC(=O)O)C(=O)O.[Ga]`, the T/C runs as follows: under setting [8], 123 % of control; under setting [2], 96 % of control; under setting [3], 79 % of control.

In the case of `CC(C)CCS(=O)(=O)OCCCCOS(=O)(=O)CCC(C)C`, the T/C is 57 % of control under setting [9]; 94 % of control under setting [10]; 57 % of control under setting [11]; 75 % of control (dose: 500.0 mg/kg/injection, vehicle: carboxymethylcellulose (CMC)).

Turning to `CCCCCCCCCC(C)(O)C#CC(C)(O)CCCCCCCCC` (configuration not stated), the T/C runs as follows: under setting [8], 86 % of control; under setting [2], 74 % of control; under setting [3], 96 % of control; under setting [4], 64 % of control.

Turning to `O=C1N(Cl)C(=O)C(c2ccc(Cl)cc2)(c2ccc(Cl)cc2)N1Cl`, the T/C reads like this: under setting [6], 67 % of control; under setting [12], 85 % of control; under setting [13], 61 % of control.

Take `Cc1c2ccc3ccccc3c2c[n+]2ccccc12`: the T/C runs as follows: under setting [5], 153 % of control; under setting [14], 89 % of control.

As for `CC(C)(c1ccccc1)c1ccc(O)cc1`, the T/C under setting [7] is 79 % of control.

As for `Nc1nc(SCc2ccccc2Cl)c2ncn(C3OC(CO)C(O)C3O)c2n1` (configuration not stated), the T/C is, setting by setting: under setting [15], 104 % of control; under setting [14], 85 % of control; under setting [2], 112 % of control.

Regarding `CCOC(=O)Sc1ncnc2nc[nH]c12`, the T/C is 87 % of control (dose: 14.0 mg/kg/injection, vehicle: carboxymethylcellulose (CMC)); 84 % of control (dose: 28.0 mg/kg/injection, vehicle: carboxymethylcellulose (CMC)); 86 % of control (dose: 56.0 mg/kg/injection, vehicle: carboxymethylcellulose (CMC)).

Turning to `ClCCn1cnc2c(SCc3ccccc3)ncnc21`, the T/C under setting [3] is 75 % of control; the T/C under setting [4] was 84 % of control and 97 % of control; the T/C (dose: 200.0 mg/kg/injection, vehicle: carboxymethylcellulose (CMC)) was 86 % of control and 89 % of control; the T/C under setting [16] was 68 % of control and 80 % of control; the T/C (dose: 600.0 mg/kg/injection, vehicle: carboxymethylcellulose (CMC)) is 73 % of control.

Consider `c1ccc2c(c1)ccc1cc3c(ccc4ccccc43)cc12`, for which the T/C under setting [9] is 64 % of control, the T/C under setting [10] was 88 % of control and the T/C under setting [11] was 86 % of control.

On to `Cc1nc(N)nc(N)c1-c1ccc(Cl)c(Cl)c1`, for which the T/C is, setting by setting: (dose: 0.75 mg/kg/injection, vehicle: carboxymethylcellulose (CMC)) 83 % of control; (dose: 1.5 mg/kg/injection, vehicle: carboxymethylcellulose (CMC)) 106 % of control; under setting [5], 100 % of control.

For `COC(=O)[C@@H]1c2cc3c(c(O)c2[C@@H](OC2OC(C)C(OC)C(C)(OC)C2OC)C[C@]1(C)O)C(=O)c1c(O)cc2c(c1C3=O)O[C@H]1O[C@]2(C)[C@H](O)[C@@H](N(C)C)[C@@H]1O` (some centres not stated), for the setting “dose: 0.25 mg/kg/injection, vehicle: saline”, the T/C was 103 % of control.

On to `CCCCCCCCCCCCn1c(C)nc2ccccc21`, for which the T/C is, setting by setting: (dose: 2.0 mg/kg/injection, vehicle: carboxymethylcellulose (CMC)) 79 % of control; (dose: 8.0 mg/kg/injection, vehicle: carboxymethylcellulose (CMC)) 62 % of control.

Consider `CN(C)Nc1ncnc2nc[nH]c12`, for which the T/C reads like this: under setting [1], 107 % of control; (dose: 40.0 mg/kg/injection, vehicle: carboxymethylcellulose (CMC)) 102 % of control.

Regarding `CC(Cl)CN(Cc1cc(O)c(CN(CC(C)Cl)CC(C)Cl)cc1O)CC(C)Cl` (configuration not stated), the T/C under setting [9] was 64 % of control.

As for `CCC1=C(c2cc(Cl)c3ccccc3c2OCC(=O)O)OC(CC)(C(=O)c2cc(Cl)c3ccccc3c2OCC(=O)O)CC1` (configuration not stated), the T/C by setting is: under setting [12], 90 % of control; under setting [13], 87 % of control; (dose: 120.0 mg/kg/injection, vehicle: carboxymethylcellulose (CMC)) 64 % of control.

With `CCCCn1cnc2c(SC)nc(N)nc21`, the T/C under setting [12] is 88 % of control; the T/C under setting [13] is 74 % of control; the T/C (dose: 115.0 mg/kg/injection, vehicle: carboxymethylcellulose (CMC)) was 75 % of control.

For the compound `CCN(CC)CCN1C(=O)c2cccc3cccc(c23)C1=O`, the T/C by setting is: (dose: 25.0 mg/kg/injection, vehicle: saline) 90 % of control; under setting [17], 163 % of control; under setting [18], 109 % of control.

On to `O=[N+]([O-])c1ccccc1CSc1ncnc2nc[nH]c12`, for which the T/C under setting [6] was 101 % of control; the T/C (dose: 31.0 mg/kg/injection, vehicle: carboxymethylcellulose (CMC)) was 99 % of control; the T/C under setting [11] is 61 % of control.

`CNC=O`: the T/C by setting is: under setting [17], 39 % of control; under setting [18], 34 % of control; (dose: 200.0 mg/kg/injection, vehicle: saline) 20 % of control.

Consider `ClCCn1cnc2c(SCc3ccccc3Cl)ncnc21`, for which the T/C is 96 % of control under setting [3], 64 % of control under setting [4] and 49 % of control under setting [16].

`CCOc1ccc(Nc2ncnc3nc[nH]c23)cc1CN(CCCl)CCCl`: the T/C is, setting by setting: (dose: 1.0 mg/kg/injection, vehicle: saline) 78 % of control; (dose: 2.0 mg/kg/injection, vehicle: saline) 99 % of control; (dose: 4.0 mg/kg/injection, vehicle: saline) 98 % of control.

For `O=C1C=CC(=Nc2ccc(O)c3ncccc23)c2cccnc21`, the T/C under setting [15] was 95 % of control.
